US20250049717A1, “DRY POWDER FORMULATIONS OF NARROW SPECTRUM KINASE INHIBITORS” (Pulmatrix Operating Company, Inc., priority 2021, published 2025)

Test: Excipient compatibility study, stressed storage, impurities by HPLC
Assay type: physicochemical
Experimental: Compound A Content/Purity using HPLC. A high performance liquid chromatography (HPLC) method utilizing a reverse phase C18 column coupled to an ultraviolet (UV) detector has been developed for the identification, bulk content, assay, CUPMD and impurities analysis of formulations of Compound A. The reverse phase column is equilibrated to 40° C. and the autosampler is set to 5° C. The mobile phases, 10 mM ammonium acetate with 0.1% TFA (mobile phase A) and acetonitrile (mobile phase B) are used in a gradient elution from a ratio of 70:30 (A:B) to 0:100 (A:B), over the course of a 20 minute run time. Detection is by UV at 260 nm and the injection volume is 30 μL. Compound A content in powders are quantified relative to a standard curve. Formula strength can be determined by measuring the amount of Compound A in the bulk powder with HPLC, then dividing the measured amount by the nominal amount of Compound A in the powder. A formula strength of a dry powder disclosed herein may be between about 90% and about 105%, e.g., about 93%, about 94%, about 95%, about 96%, about 97%, about 98%, about 99%, about 100%, about 101%, or about 102%.
The spray dried Compound A formulations were exposed to stressed storage conditions for up to two weeks to assess the potential for excipient-induced degradation. The powders were added to 4 mL vials and exposed to 60° C./30% RH, 70° C./10% RH and 80° C./50% RH. Testing for impurities occurred at t=0, t=3 days, t=7 days and t=14 days for samples held at 60° C./30% RH and 70° C./10% RH and at t=0, t=3 days and t=7 days for samples held at 80° C./50% RH. Control samples including Formulation VI, comprising 50% micronized Compound A, 45% sodium chloride, and 5% polysorbate 80 as well as as-received micronized Compound A were included in an attempt to decouple particle size effects and/or the degradation potential of polysorbate 80.

Compound: Cc1ccc(-n2nc(C(C)(C)C)cc2NC(=O)Nc2ccc(Oc3ccnc(Nc4ccccc4)n3)c3ccccc23)cc1 [Compound A, 1-(3-tert-butyl-1-p-tolyl-1H-pyrazol-5-yl)-3-(4-(2-(phenylamino)pyrimidin-4-yloxy)naphthalen-1-yl)urea]
- Total Impurities (60 C./30% RH, 3 days): 0.28 % w/w
- Total Known Impurities (60 C./30% RH, 3 days): 0.20 % w/w
- Total Unknown Impurities (60 C./30% RH, 3 days): 0.08 % w/w
- Total Impurities (60 C./30% RH, 7 days): 0.26 % w/w
- Total Known Impurities (60 C./30% RH, 7 days): 0.17 % w/w
- Total Unknown Impurities (60 C./30% RH, 7 days): 0.09 % w/w
- Total Impurities (60 C./30% RH, 14 days): 0.21 % w/w
- Total Known Impurities (60 C./30% RH, 14 days): 0.14 % w/w
- Total Unknown Impurities (60 C./30% RH, 14 days): 0.07 % w/w
- Total Impurities (70 C./10% RH, 3 days): 0.29 % w/w
- Total Known Impurities (70 C./10% RH, 3 days): 0.19 % w/w
- Total Unknown Impurities (70 C./10% RH, 3 days): 0.11 % w/w
- Total Impurities (70 C./10% RH, 7 days): 0.31 % w/w
- Total Known Impurities (70 C./10% RH, 7 days): 0.17 % w/w
- Total Unknown Impurities (70 C./10% RH, 7 days): 0.14 % w/w
- Total Impurities (70 C./10% RH, 14 days): 0.20 % w/w
- Total Known Impurities (70 C./10% RH, 14 days): 0.13 % w/w
- Total Unknown Impurities (70 C./10% RH, 14 days): 0.08 % w/w
- Total Impurities (80 C./50% RH, 3 days): 0.24 % w/w
- Total Known Impurities (80 C./50% RH, 3 days): 0.16 % w/w
- Total Unknown Impurities (80 C./50% RH, 3 days): 0.09 % w/w
- Total Impurities (80 C./50% RH, 7 days): 0.32 % w/w
- Total Known Impurities (80 C./50% RH, 7 days): 0.14 % w/w
- Total Unknown Impurities (80 C./50% RH, 7 days): 0.18 % w/w
- Total Impurities (time point 0 days): 0.29 % w/w
- Total Known Impurities (time point 0 days): 0.22 % w/w
- Total Unknown Impurities (time point 0 days): 0.07 % w/w
